Laboratory results: US11963953B2, “Deuterated compounds for restoring mutant p53 function” (PMV Pharmaceuticals, Inc., priority 2022, dated 2024)

Assays:
p53 Y220C = target: T1, p53 Y220C (Homo sapiens, UniProt P04637, Y220C); assay: In vitro DNA binding activity assay (HTRF / TR-FRET) of recombinant His-tagged p53 Y220C DNA binding domain with biotin-labeled consensus DNA; format: biochemical; settings: concentration required to increase DNA binding activity of p53 Y220C by 50%
T1 construct: made in house; host or cells: E. coli
Protocol: The ability of a compound of the disclosure to stabilize p53 Y220C and increase the DNA binding activity of p53 Y220C was measured by a homogeneous time-resolved fluorescence (HTRF) assay. Recombinant His-tagged p53 Y220C used in the HTRF assay was expressed in the bacterium E. coli. The recombinant protein was a truncation mutant containing only amino acids 94-312 of p53, which encompassed the DNA binding domain (DBD) of p53 (SEQ ID NO.: 1). The His-tagged p53 Y220C was tested for DNA binding ability with a consensus sequence of DNA (DNA duplex with a sequence of 5 ¢-[…]-3 ¢; SEQ ID NO.: 2). SEQ ID NO.: 2 was then conjugated with a biotin label and used in the activity assay.
The binding of the recombinant His-tagged p53 Y220C protein and the biotin-labeled consensus DNA was measured using fluorescence resonance energy transfer (FRET). For the FRET assay, the binding between the p53 mutant and the DNA sequence was measured by detecting the fluorescence of the interaction between an anti-His antibody conjugated to allophycocyanin (APC) and streptavidin conjugated to europium to detect the biotin-labeled DNA.
The test compounds were prepared as 4.5 mM stock solutions in dimethyl sulfoxide (DMSO). The compounds of the disclosure were used to test the stabilization of p53 Y220C and increase in DNA binding activity of p53 Y220C. The stock solutions were then serially diluted 3-fold in DMSO, and 1.2 μL of the diluted solutions was added to each well of a 384-well polypropylene black plate. 30 μL of a 181 nM solution of the recombinant His-tagged p53 Y220C protein and 12.1 nM of APC conjugated anti-His tag antibody in ice-cold Assay Buffer 1 (50 mM Tris-HCl, pH 7.4; 75 mM KCl; 0.75 mM DTT; and 0.2 mg/mL bovine serum albumin (BSA) was added to each well containing the test compounds.
As a background control, […] of Assay Buffer 1 containing 12.1 nM of APC anti-His antibody was also added into a second set of serially-diluted compound plates. […] The assay signals were monitored by reading excitation at 340 nm, and emission fluorescence at 615 nm and 665 nm on a plate reader.
Normalized time-resolved fluorescence resonance energy transfer (TR-FRET) assay signal (Rn) was calculated by the formula: Rn=[(A-Ba-CD)/(D-Bd)](Dc-Bd) where A was the fluorescence intensity of the sample at 665 nm; D was the fluorescence intensity of the sample at 615 nm; Ba and Bd were plate background readings at 665 nm and 615 nm, respectively; and Dc was the fluorescence intensity of 1.8 nM Eu-SA in the assay buffer at 615 nm.
The cross-talk factor (C) was determined by the following formula: C═(Ac—Ba)/(Dc-Bd) where Ac was the fluorescence intensity of 1.8 nM Eu-labeled anti-FLAG antibody in the assay buffer at 665 nm. […] The SC150 values were calculated using either Prism™ or ActivityBase™.

[1] = Pharmacokinetic analysis after single oral administration to male cynomolgus monkeys, with plasma levels of parent and glucuronidation metabolites; settings: cynomolgus monkey, in vivo, 25 mg/kg
Protocol: The pharmacokinetics (PK) of a deuterated compound and a comparator compound were measured following a 2-phase single oral (PO) administration to male cynomolgus monkeys. Compound and metabolite levels were monitored for up to 48 hours following dosing.
A group of 3 non-naïve male cynomolgus monkeys were used in this 2-phase study with a 5-day washout period between each phase. Animals in Phases 1 or 2 were administered the compounds by single oral administration at 25 mg/kg. The vehicle used for the oral studies was 2% (w/v) hydroxypropylcellulose (HPC) w/v in water [“vehicle” ]. Administration was PO in fasted (overnight) animals. […] The body weights of the animals were in the range from 2.28 to 3.32 kg for males on the dosing day of Phase 1. All animals received a single oral gavage administration in each Phase.
Compound formulations were prepared in accordance with the following procedure: 257.0 mg of Compound C (4-[3-[4-[[(3S,4R)-3-fluoro-1-methyl-4-piperidyl]amino]-1-(2,2,2-trifluoroethyl)indol-2-yl]prop-2-ynylamino]-N-methyl-3-(methoxy)benzamide) was added to a pre-calibrated beaker, manually mixed with 1 mL of vehicle, stirred for 5 min to generate homogenous opaque suspension. An additional 40 mL of vehicle was added with manual mixing, and stirred for 5 min to generate a homogenous opaque suspension. An additional 9.218 mL of vehicle was added, and stirred overnight to generate a homogenous opaque suspension. 260.3 mg of Compound 3 (4-[3-[4-[[(3S,4R)-3-fluoro-1-methyl-4-piperidyl]amino]-1-(2,2,2-trifluoroethyl)indol-2-yl]prop-2-ynylamino]-N-methyl-3-(trideuteriomethoxy)benzamide) was added to a pre-calibrated beaker, manually mixed test article with 49.978 mL of vehicle, stirred for 30 min to generate a homogenous opaque suspension. Formulations were stored at room temperature for up to 15 days after preparation.
The detailed dosing and sampling regimens are described in the following table.
The concentrations of the compounds in all dosing solutions were determined by UPLC-UV [ACQUITY UPLC, ACQUITY UPLC BEH C8 1.7 m 2.1×100 mm Column, Mobile phase A: 0.1% FA & 2 mM HCOONH4 in water/ACN (v:v, 95:5), Mobile phase B: 0.1% FA & 2 mM HCOONH4 in ACN/water (v:v, 95:5)]. Three aliquots were taken from the bottom, middle and top regions of PO dosing solutions.
Plasma samples were collected at 0.25, 0.5, 1, 2, 4, 8, 12, 24 and 48 hours post-dose in Phases 1 and 2. Blank Plasma: Whole blood was collected from available stock animal into commercially available tubes containing K2-EDTA on wet ice and processed for plasma. The plasma was pooled to serve as blank monkey plasma. PK plasma: Approximately 0.5 mL of blood was collected at each time point via peripheral vessel from each study animal. The actual time for each sample collection was recorded. The deviations on sampling time were less than 1 minute for the time points pre-dose through 1 hour post-dose, and less than 5% of the nominal time for time points after 1 hour post-dose. All blood samples were transferred into commercial tube (Jiangsu Kangjian medical supplies Co., Ltd.) containing K2-EDTA (0.85-1.15 mg) and placed on wet ice until processed for plasma. Plasma samples were prepared within 1 hour of collection by centrifuging the blood samples at approximately 2-8° C., 3200×g for 10 minutes. Plasma samples of about 0.1 mL×2 aliquots (one for BA, and the other one for back up) for each time point were transferred into labeled polypropylene micro-centrifuge tubes and stored frozen in a freezer set to be maintained at −60° C. or lower until LC-MS/MS analysis. Concentrations of the compounds and metabolite in plasma samples were determined by a liquid chromatography tandem mass spectrometry (LC-MS/MS) method [Triple Quad 6500 Plus, ESI (+) ionization mode, MRM detection mode]. The plasma concentration of the compounds and metabolites in study animals was subjected to a non-compartmental pharmacokinetic analysis by using the Phoenix WinNonlin software (version 6.3 or above, Pharsight). […]

[2H]C([2H])([2H])Oc1cc(S(C)(=O)=O)ccc1NCC#Cc1cc2c(N[C@@H]3CCN(C([2H])([2H])[2H])C[C@@H]3F)cccc2n1CC(F)(F)F (racemic) [Compound 4, rac-N-[(3S,4R)-3-fluoro-1-(trideuteriomethyl)-4-piperidyl]-2-[3-[4-methylsulfonyl-2-(trideuteriomethoxy)anilino]prop-1-ynyl]-1-(2,2,2-trifluoroethyl)indol-4-ylamine]
SC150 (p53 Y220C): +++ (+++ = 0 nM < SC150 < 10 nM)

[2H]C([2H])([2H])Oc1cc(S(C)(=O)=O)ccc1NCC#Cc1cc2c(N[C@H]3CCN(C)C[C@H]3F)cccc2n1CC(F)(F)F (racemic) [Compound 10, Rac-N-((3R,4S)-3-fluoro-1-methylpiperidin-4-yl)-2-(3-((2-(methoxy-d3)-4-(methylsulfonyl)phenyl)amino)prop-1-yn-1-yl)-1-(2,2,2-trifluoroethyl)-1H-indol-4-amine]
SC150 (p53 Y220C): +++ (+++ = 0 nM < SC150 < 10 nM)

[2H]C([2H])([2H])Oc1cc(C(=O)NC)ccc1NCC#Cc1cc2c(N[C@@H]3CCN(C)C[C@@H]3F)cccc2n1CC(F)(F)F [Compound 3, 4-[3-[4-[[(3S,4R)-3-fluoro-1-methyl-4-piperidyl]amino]-1-(2,2,2-trifluoroethyl)indol-2-yl]prop-2-ynylamino]-N-methyl-3-(trideuteriomethoxy)benzamide]
% of total analyte area, analyte Parent [1]: 42.0%
AUC0-24 % Rel. to Cpd C value, analyte Parent [1]: 160%
AUC(0-inf) [1]: 118 µg·h/mL
AUCExtra [1]: 0.599%
Cmax [1]: 10000 ± 4180 ng/mL
Tmax [1]: 2 h
half-life [1]: 382 min
increase in AUC over Compound C [1]: about 60%
reduction in glucuronidation metabolite (first named) [1]: 70%
reduction in glucuronidation metabolite (second named) [1]: 10%
AUC(0-t) ([1]; AUC0-24): 107 ± 29.2 µg·h/mL
AUC(0-t) ([1]; AUC0-24, analyte Parent): 107 µg·h/mL
AUC(0-t) ([1]; AUC0-last): 118 µg·h/mL

[2H]C([2H])([2H])NC(=O)c1ccc(NCC#Cc2cc3c(N[C@@H]4CCN(C)C[C@@H]4F)cccc3n2CC(F)(F)F)c(OC)c1 [Compound 5, 4-[3-[4-[[(3S,4R)-3-fluoro-1-methyl-4-piperidyl]amino]-1-(2,2,2-trifluoroethyl)indol-2-yl]prop-2-ynylamino]-3-methoxy-N-(trideuteriomethyl)benzamide]
SC150 (p53 Y220C): ++ (++ = 10 nM < SC150 < 50 nM)

[2H]C([2H])([2H])NC(=O)c1ccc(NCC#Cc2cc3c(N[C@@H]4CCN(C)C[C@@H]4F)cccc3n2CC(F)(F)F)c(OC([2H])([2H])[2H])c1 [Compound 6, 4-[3-[4-[[(3S,4R)-3-fluoro-1-methyl-4-piperidyl]amino]-1-(2,2,2-trifluoroethyl)indol-2-yl]prop-2-ynylamino]-3-(trideuteriomethoxy)-N-(trideuteriomethyl)benzamide]
SC150 (p53 Y220C): +++ (+++ = 0 nM < SC150 < 10 nM)
